Results: patent US8410153B2, “Naphthalene isoxazoline invertebrate pest control agents” (E.I. du Pont de Nemours and Company, priority 2007, dated 2013)

How the values were obtained:
Assay type in all cases: in vivo
[1] = tested on: diamondback moth (Plutella xylostella); test: Test A: control of diamondback moth on radish plant, foliar spray; conditions: sprayed at 50 ppm, held 6 days
Summary of the method: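 Radish plants 12–14 days old, pre-infested with about 50 neonate larvae, sprayed at 50 ppm in 10% acetone/water with 300 ppm X-77 surfactant; three replicates. After 6 days at 25° C and 70% RH, feeding damage was scored visually and mortality counted.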

[2] = tested on: fall armyworm (Spodoptera frugiperda); test: Test B: control of fall armyworm on corn (maize) plant, foliar spray; conditions: sprayed at 50 ppm
Summary of the method: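 4-5-day-old corn plants pre-infested with 10-15 1-day-old larvae on insect diet, then sprayed with compound at 50 ppm in 10% acetone/90% water with 300 ppm surfactant, three replicates. Held 6 days at 25° C, 70% RH; feeding damage assessed visually and mortality rated.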

[3] = tested on: western flower thrips (Frankliniella occidentalis); test: Test E: control of western flower thrips on Soleil bean plant, contact and/or systemic; conditions: held 6 days
Summary of the method: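 5–7-day-old Soleil bean plants were sprayed at 250 or 50 ppm in 10% acetone/90% water with 300 ppm X-77 surfactant, three replicates. After drying 1 h, 22–27 adult thrips were added per unit. Mortality and plant damage were rated after 6 days at 25 °C and 45–55% RH.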

Measured: levels of control efficacy (20% or less feeding damage or 80% or more mortality)

O=C(CNC(=O)c1ccc(C2=NOC(c3cc(Cl)cc(Cl)c3)(C(F)(F)F)C2)c2ccccc12)NCC(F)(F)F (centres unmarked) [Compound 1]
very good to excellent: [1] | [2] | [3]; sprayed at 50 ppm | [3]; sprayed at 250 ppm

CCS(=O)(=O)CCNC(=O)c1ccc(C2=NOC(c3cc(C(F)(F)F)cc(C(F)(F)F)c3)(C(F)(F)F)C2)c2ccccc12 (centres unmarked) [Compound 99]
very good to excellent: [1] | [2] | [3]; sprayed at 50 ppm

CCSCCNC(=O)c1ccc(C2=NOC(c3cccc(C(F)(F)F)c3)(C(F)(F)F)C2)c2ccccc12 (racemic) [Compound 51]
very good to excellent: [1] | [2] | [3]; sprayed at 50 ppm | [3]; sprayed at 250 ppm

CSCCNC(=O)c1ccc(C2=NOC(c3cc(Cl)cc(Cl)c3)(C(F)(F)F)C2)c2ccccc12 (centres unmarked) [Compound 17]
very good to excellent: [1] | [2] | [3]; sprayed at 50 ppm | [3]; sprayed at 250 ppm

CC(C)NC(=O)C(C)NC(=O)c1ccc(C2=NOC(c3cc(Cl)cc(Cl)c3)(C(F)(F)F)C2)c2ccccc12 (mixture of isomers) [Compound 33]
very good to excellent: [1] | [2] | [3]; sprayed at 50 ppm | [3]; sprayed at 250 ppm

CC(C)(O)CNC(=O)c1ccc(C2=NOC(c3cccc(C(F)(F)F)c3)(C(F)(F)F)C2)c2ccccc12 (racemic) [Compound 43]
very good to excellent: [1] | [2] | [3]; sprayed at 250 ppm

O=C(CNC(=O)c1ccc(C2=NOC(c3cc(Cl)cc(OC(F)(F)F)c3)(C(F)(F)F)C2)c2ccccc12)NCC(F)(F)F (racemic) [Compound 136]
very good to excellent: [1] | [2] | [3]; sprayed at 50 ppm

CCSCCNC(=O)c1ccc(C2=NOC(c3cc(C(F)(F)F)cc(C(F)(F)F)c3)(C(F)(F)F)C2)c2ccccc12 (centres unmarked) [Compound 92]
very good to excellent: [1] | [2] | [3]; sprayed at 50 ppm | [3]; sprayed at 250 ppm

CS(=O)(=O)CCNC(=O)c1ccc(C2=NOC(c3cc(F)cc(C(F)(F)F)c3)(C(F)(F)F)C2)c2ccccc12 (racemic) [Compound 134]
very good to excellent: [1] | [2] | [3]; sprayed at 50 ppm | [3]; sprayed at 250 ppm

CC(C)NC(=O)C(C)NC(=O)c1ccc(C2=NOC(c3cc(C(F)(F)F)cc(C(F)(F)F)c3)(C(F)(F)F)C2)c2ccccc12 (mixture of isomers) [Compound 83]
very good to excellent: [1] | [2] | [3]; sprayed at 50 ppm | [3]; sprayed at 250 ppm

O=C(NCCO)c1ccc(C2=NOC(c3cc(Cl)cc(Cl)c3)(C(F)(F)F)C2)c2ccccc12 (centres unmarked) [Compound 11]
very good to excellent: [1] | [2] | [3]; sprayed at 50 ppm | [3]; sprayed at 250 ppm

CCNC(=O)CNC(=O)c1ccc(C2=NOC(c3cc(Br)cc(C(F)(F)F)c3)(C(F)(F)F)C2)c2ccccc12 (racemic) [Compound 144]
very good to excellent: [1] | [2] | [3]; sprayed at 50 ppm

CS(=O)(=O)CCNC(=O)c1ccc(C2=NOC(c3cc(C(F)(F)F)cc(C(F)(F)F)c3)(C(F)(F)F)C2)c2ccccc12 (racemic) [Compound 49]
very good to excellent: [1] | [2] | [3]; sprayed at 50 ppm | [3]; sprayed at 250 ppm

CNC(=O)CNC(=O)c1ccc(C2=NOC(c3cc(Br)cc(C(F)(F)F)c3)(C(F)(F)F)C2)c2ccccc12 (racemic) [Compound 143]
very good to excellent: [1] | [2] | [3]; sprayed at 50 ppm

CSCCNC(=O)c1ccc(C2=NOC(c3cc(Cl)cc(C(F)(F)F)c3)(C(F)(F)F)C2)c2ccccc12 (centres unmarked) [Compound 65]
very good to excellent: [1] | [2] | [3]; sprayed at 50 ppm | [3]; sprayed at 250 ppm

CC(C)NC(=O)CNC(=O)c1ccc(C2=NOC(c3cc(C(F)(F)F)cc(C(F)(F)F)c3)(C(F)(F)F)C2)c2ccccc12 (racemic) [Compound 40]
very good to excellent: [1] | [2] | [3]; sprayed at 50 ppm | [3]; sprayed at 250 ppm

CC(CO)NC(=O)c1ccc(C2=NOC(c3cccc(C(F)(F)F)c3)(C(F)(F)F)C2)c2ccccc12 (mixture of isomers) [Compound 41]
very good to excellent: [1] | [2] | [3]; sprayed at 50 ppm | [3]; sprayed at 250 ppm

CCC(CC)NC(=O)CNC(=O)c1ccc(C2=NOC(c3cc(Cl)cc(Cl)c3)(C(F)(F)F)C2)c2ccccc12 (centres unmarked) [Compound 25]
very good to excellent: [1] | [2] | [3]; sprayed at 250 ppm

CC(C)NC(=O)CNC(=O)c1ccc(C2=NOC(c3cccc(C(F)(F)F)c3)(C(F)(F)F)C2)c2ccccc12 (racemic) [Compound 38]
very good to excellent: [1] | [2] | [3]; sprayed at 50 ppm | [3]; sprayed at 250 ppm

CCNC(=O)C(C)NC(=O)c1ccc(C2=NOC(c3cc(C(F)(F)F)cc(C(F)(F)F)c3)(C(F)(F)F)C2)c2ccccc12 (centres unmarked) [Compound 88]
very good to excellent: [1] | [2] | [3]; sprayed at 50 ppm | [3]; sprayed at 250 ppm
